# “Also recorded” adds a separate entry of the source. Where two headings read alike, the source gives them in different places.
# Columns and labels:
# CYP3A4 = CYP3A4 (Homo sapiens, UniProt P08684); assay type: in vivo; conditions: for Change in t1/2 when administered with lenvatinib: D1 and D14 vs D −3
# [1] = assay type: in vivo, human; conditions: for tmax: median (minimum, maximum); for Vd/F: Vz/F
# [2] = D1 vs D −3 (single dose of lenvatinib 24 mg)
# [3] = D14 vs D −3 (lenvatinib 24 mg at steady state)
# [4] = D −3, patients of comparison D1 vs D −3
# [5] = D −3, patients of comparison D14 vs D −3
# [6] = Day 1, with single dose of lenvatinib, mean (SD)
# [7] = Day 14, with lenvatinib at steady state, mean (SD)
# [8] = Day −3, midazolam alone, mean (SD)
# Sequence of CYP3A4 (P08684 whole entry): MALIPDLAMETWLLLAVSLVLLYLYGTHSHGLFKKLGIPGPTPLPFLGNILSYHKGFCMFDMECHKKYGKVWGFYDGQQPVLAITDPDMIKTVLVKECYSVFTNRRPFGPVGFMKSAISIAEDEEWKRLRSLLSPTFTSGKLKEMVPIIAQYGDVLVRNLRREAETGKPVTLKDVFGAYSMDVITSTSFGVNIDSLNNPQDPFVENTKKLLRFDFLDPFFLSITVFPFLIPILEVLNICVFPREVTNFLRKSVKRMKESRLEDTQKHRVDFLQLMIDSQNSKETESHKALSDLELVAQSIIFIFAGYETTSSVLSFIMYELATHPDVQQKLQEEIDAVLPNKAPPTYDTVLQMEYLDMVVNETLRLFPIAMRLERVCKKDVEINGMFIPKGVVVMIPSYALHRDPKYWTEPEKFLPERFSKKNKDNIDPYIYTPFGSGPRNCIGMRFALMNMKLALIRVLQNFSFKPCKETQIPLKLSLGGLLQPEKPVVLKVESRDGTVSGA
smiles,measurement,setting,value
"OCc1ncc2n1-c1ccc(Cl)cc1C(c1ccccc1F)=NC2 [1′-OH midazolam, 1′-hydroxy-midazolam]",Change in t1/2 when administered with lenvatinib,CYP3A4,no statistically significant change
same,Difference in median tmax,CYP3A4; D1 vs D −3,0.00 h
same,AUC0–24 geometric mean ratio (test/reference),CYP3A4; [2],1.120
same,Cmax geometric mean ratio (test/reference),CYP3A4; [2],1.055
same,Difference in median tmax,CYP3A4; D14 vs D −3,0.00 h
same,AUC0–24 geometric mean ratio (test/reference),CYP3A4; [3],1.199
same,Cmax geometric mean ratio (test/reference),CYP3A4; [3],0.940
same,"Plasma concentration, mean (standard deviation)","[1]; 0.5 h, D1 1 dose of lenvatinib and midazolam",10.433 (11.8436) ng/mL
same,"Plasma concentration, mean (standard deviation)","[1]; 0.5 h, D14 multiple doses of lenvatinib and 1 dose of midazolam",8.048 (12.1629) ng/mL
same,"Plasma concentration, mean (standard deviation)","[1]; 0.5 h, D −3 midazolam only",7.929 (8.1952) ng/mL
same,"Plasma concentration, mean (standard deviation)","[1]; 1 h, D1 1 dose of lenvatinib and midazolam",9.230 (9.8222) ng/mL
same,"Plasma concentration, mean (standard deviation)","[1]; 1 h, D14 multiple doses of lenvatinib and 1 dose of midazolam",8.884 (8.9281) ng/mL
same,"Plasma concentration, mean (standard deviation)","[1]; 1 h, D −3 midazolam only",8.259 (6.9675) ng/mL
same,"Plasma concentration, mean (standard deviation)","[1]; 1.5 h, D1 1 dose of lenvatinib and midazolam",8.265 (9.0440) ng/mL
same,"Plasma concentration, mean (standard deviation)","[1]; 1.5 h, D14 multiple doses of lenvatinib and 1 dose of midazolam",7.314 (6.7286) ng/mL
same,"Plasma concentration, mean (standard deviation)","[1]; 1.5 h, D −3 midazolam only",7.307 (5.9056) ng/mL
same,"Plasma concentration, mean (standard deviation)","[1]; 2 h, D1 1 dose of lenvatinib and midazolam",6.921 (8.0144) ng/mL
same,"Plasma concentration, mean (standard deviation)","[1]; 2 h, D14 multiple doses of lenvatinib and 1 dose of midazolam",5.767 (5.0953) ng/mL
same,"Plasma concentration, mean (standard deviation)","[1]; 2 h, D −3 midazolam only",5.736 (4.1774) ng/mL
same,"Plasma concentration, mean (standard deviation)","[1]; 3 h, D1 1 dose of lenvatinib and midazolam",4.888 (7.3050) ng/mL
same,"Plasma concentration, mean (standard deviation)","[1]; 3 h, D14 multiple doses of lenvatinib and 1 dose of midazolam",4.027 (3.2372) ng/mL
same,"Plasma concentration, mean (standard deviation)","[1]; 3 h, D −3 midazolam only",3.698 (2.9719) ng/mL
same,"Plasma concentration, mean (standard deviation)","[1]; 4 h, D1 1 dose of lenvatinib and midazolam",3.395 (5.2011) ng/mL
same,"Plasma concentration, mean (standard deviation)","[1]; 4 h, D14 multiple doses of lenvatinib and 1 dose of midazolam",2.919 (2.1611) ng/mL
same,"Plasma concentration, mean (standard deviation)","[1]; 4 h, D −3 midazolam only",2.359 (1.9899) ng/mL
same,"Plasma concentration, mean (standard deviation)","[1]; 6 h, D1 1 dose of lenvatinib and midazolam",2.059 (2.3381) ng/mL
same,"Plasma concentration, mean (standard deviation)","[1]; 6 h, D14 multiple doses of lenvatinib and 1 dose of midazolam",1.773 (1.4213) ng/mL
same,"Plasma concentration, mean (standard deviation)","[1]; 6 h, D −3 midazolam only",1.447 (1.4379) ng/mL
same,"Plasma concentration, mean (standard deviation)","[1]; 8 h, D1 1 dose of lenvatinib and midazolam",1.132 (1.0593) ng/mL
same,"Plasma concentration, mean (standard deviation)","[1]; 8 h, D14 multiple doses of lenvatinib and 1 dose of midazolam",1.372 (1.2790) ng/mL
same,"Plasma concentration, mean (standard deviation)","[1]; 8 h, D −3 midazolam only",1.024 (0.9525) ng/mL
same,"Plasma concentration, mean (standard deviation)","[1]; 10 h, D1 1 dose of lenvatinib and midazolam",0.852 (0.7166) ng/mL
same,"Plasma concentration, mean (standard deviation)","[1]; 10 h, D14 multiple doses of lenvatinib and 1 dose of midazolam",1.055 (1.0511) ng/mL
same,"Plasma concentration, mean (standard deviation)","[1]; 10 h, D −3 midazolam only",0.767 (0.6376) ng/mL
same,"Plasma concentration, mean (standard deviation)","[1]; 24 h, D1 1 dose of lenvatinib and midazolam",0.186 (0.1472) ng/mL
same,"Plasma concentration, mean (standard deviation)","[1]; 24 h, D14 multiple doses of lenvatinib and 1 dose of midazolam",0.282 (0.1998) ng/mL
same,"Plasma concentration, mean (standard deviation)","[1]; 24 h, D −3 midazolam only",0.158 (0.1110) ng/mL
same,"AUC0–24 geometric mean, lenvatinib + midazolam (test)","[1]; D1, comparison D1 vs D −3",37.91 ng·h/mL
same,"Cmax geometric mean, lenvatinib + midazolam (test)","[1]; D1, comparison D1 vs D −3",9.54 ng/mL
same,"AUC0–24 geometric mean, lenvatinib + midazolam (test)","[1]; D14, comparison D14 vs D −3",36.93 ng·h/mL
same,"Cmax geometric mean, lenvatinib + midazolam (test)","[1]; D14, comparison D14 vs D −3",8.24 ng/mL
same,"AUC0–24 geometric mean, midazolam (reference)",[1]; [4],33.84 ng·h/mL
same,"Cmax geometric mean, midazolam (reference)",[1]; [4],9.04 ng/mL
same,"AUC0–24 geometric mean, midazolam (reference)",[1]; [5],30.81 ng·h/mL
same,"Cmax geometric mean, midazolam (reference)",[1]; [5],8.76 ng/mL
same,AUC0–24,"[1]; Day 1, midazolam with single dose of lenvatinib 24 mg, mean (SD), n = 28",48.6 (47.8) ng × h/mL
same,Cmax,[1]; [6],12.7 (11.6) ng/mL
same,t1/2,[1]; [6],5.48 (2.26) h
same,tmax,"[1]; Day 1, with single dose of lenvatinib","0.75 (0.25, 2.00) h"
same,AUC0–24,"[1]; Day 14, midazolam with lenvatinib at steady state, mean (SD), n = 19",41.3 (34.3) ng × h/mL
same,Cmax,[1]; [7],10.7 (11.6) ng/mL
same,t1/2,[1]; [7],5.53 (1.99) h
same,tmax,"[1]; Day 14, with lenvatinib at steady state","0.77 (0.25, 1.50) h"
same,AUC0–24,"[1]; Day −3, midazolam 4 mg oral alone, mean (SD), n = 29",38.5 (26.5) ng × h/mL
same,Cmax,[1]; [8],11.0 (8.64) ng/mL
same,t1/2,[1]; [8],5.58 (1.15) h
same,tmax,"[1]; Day −3, midazolam alone","0.75 (0.25, 2.02) h"
Cc1ncc2n1-c1ccc(Cl)cc1C(c1ccccc1F)=NC2 [midazolam],Change in t1/2 when administered with lenvatinib,CYP3A4,little change; also recorded: no statistically significant change
same,Difference in median tmax,CYP3A4; D1 vs D −3,0.00 h
same,Difference in median tmax,CYP3A4; D14 vs D −3,0.00 h
same,Change in CL/F and Vz/F over time,"CYP3A4; D −3, D1, D14",no statistically significant change
same,"Cmax geometric mean, lenvatinib + midazolam (test)","[1]; D14, comparison D14 vs D −3",24.76 ng/mL
same,"Cmax geometric mean, midazolam (reference)",[1]; [4],24.73 ng/mL
same,"AUC0–24 geometric mean, midazolam (reference)",[1]; [5],88.30 ng·h/mL
same,"Cmax geometric mean, midazolam (reference)",[1]; [5],24.10 ng/mL
same,Cmax,[1]; [8],26.5 (10.7) ng/mL
same,concentration at 1 h,"[1]; human, plasma, oral, 4 mg, Plasma concentration, mean (standard deviation), 1 h, D −3 midazolam only",19 ng/mL
same,concentration at 2 h,"[1]; human, plasma, oral, 4 mg, Plasma concentration, mean (standard deviation), 2 h, D −3 midazolam only",13.1 ng/mL
same,concentration at 3 h,"[1]; human, plasma, oral, 4 mg, Plasma concentration, mean (standard deviation), 3 h, D −3 midazolam only",8.78 ng/mL
same,concentration at 4 h,"[1]; human, plasma, oral, 4 mg, Plasma concentration, mean (standard deviation), 4 h, D −3 midazolam only",6.12 ng/mL
same,concentration at 6 h,"[1]; human, plasma, oral, 4 mg, Plasma concentration, mean (standard deviation), 6 h, D −3 midazolam only",4.19 ng/mL
same,concentration at 8 h,"[1]; human, plasma, oral, 4 mg, Plasma concentration, mean (standard deviation), 8 h, D −3 midazolam only",3.24 ng/mL
same,concentration at 10 h,"[1]; human, plasma, oral, 4 mg, Plasma concentration, mean (standard deviation), 10 h, D −3 midazolam only",2.51 ng/mL
same,concentration at 24 h,"[1]; human, plasma, oral, 4 mg, Plasma concentration, mean (standard deviation), 24 h, D −3 midazolam only",0.53 ng/mL
same,Vd/F,"[1]; human, plasma, oral, 4 mg, Day −3, midazolam alone, mean (SD)",382 L
same,half-life,"[1]; human, plasma, oral, 4 mg, t1/2, Day −3, midazolam alone, mean (SD)",352 min
same,AUC(0-t),"[1]; human, plasma, oral, AUC0–24, Day 14, midazolam with lenvatinib at steady state, mean (SD), n = 19",117 ng·h/mL
same,Cmax,"[1]; human, plasma, oral, Cmax, Day 1, with single dose of lenvatinib, mean (SD)",24.8 ng/mL
same,Cmax,"[1]; human, plasma, oral, Cmax, Day 14, with lenvatinib at steady state, mean (SD)",28.3 ng/mL
same,concentration at 0.5 h,"[1]; human, plasma, oral, Plasma concentration, mean (standard deviation), 0.5 h, D14 multiple doses of lenvatinib and 1 dose of midazolam",23.7 ng/mL
same,concentration at 1 h,"[1]; human, plasma, oral, Plasma concentration, mean (standard deviation), 1 h, D1 1 dose of lenvatinib and midazolam",16.5 ng/mL
same,concentration at 1 h,"[1]; human, plasma, oral, Plasma concentration, mean (standard deviation), 1 h, D14 multiple doses of lenvatinib and 1 dose of midazolam",23.1 ng/mL
same,concentration at 1.5 h,"[1]; human, plasma, oral, Plasma concentration, mean (standard deviation), 1.5 h, D14 multiple doses of lenvatinib and 1 dose of midazolam",17.8 ng/mL
same,concentration at 2 h,"[1]; human, plasma, oral, Plasma concentration, mean (standard deviation), 2 h, D1 1 dose of lenvatinib and midazolam",11.3 ng/mL
same,concentration at 2 h,"[1]; human, plasma, oral, Plasma concentration, mean (standard deviation), 2 h, D14 multiple doses of lenvatinib and 1 dose of midazolam",13.9 ng/mL
same,concentration at 3 h,"[1]; human, plasma, oral, Plasma concentration, mean (standard deviation), 3 h, D1 1 dose of lenvatinib and midazolam",7.89 ng/mL
same,concentration at 3 h,"[1]; human, plasma, oral, Plasma concentration, mean (standard deviation), 3 h, D14 multiple doses of lenvatinib and 1 dose of midazolam",9.93 ng/mL
same,concentration at 4 h,"[1]; human, plasma, oral, Plasma concentration, mean (standard deviation), 4 h, D1 1 dose of lenvatinib and midazolam",5.67 ng/mL
same,concentration at 4 h,"[1]; human, plasma, oral, Plasma concentration, mean (standard deviation), 4 h, D14 multiple doses of lenvatinib and 1 dose of midazolam",7.58 ng/mL
same,concentration at 6 h,"[1]; human, plasma, oral, Plasma concentration, mean (standard deviation), 6 h, D1 1 dose of lenvatinib and midazolam",4.08 ng/mL
same,concentration at 6 h,"[1]; human, plasma, oral, Plasma concentration, mean (standard deviation), 6 h, D14 multiple doses of lenvatinib and 1 dose of midazolam",5.21 ng/mL
same,concentration at 8 h,"[1]; human, plasma, oral, Plasma concentration, mean (standard deviation), 8 h, D1 1 dose of lenvatinib and midazolam",2.96 ng/mL
same,concentration at 8 h,"[1]; human, plasma, oral, Plasma concentration, mean (standard deviation), 8 h, D14 multiple doses of lenvatinib and 1 dose of midazolam",4.05 ng/mL
same,concentration at 10 h,"[1]; human, plasma, oral, Plasma concentration, mean (standard deviation), 10 h, D1 1 dose of lenvatinib and midazolam",2.39 ng/mL
same,concentration at 10 h,"[1]; human, plasma, oral, Plasma concentration, mean (standard deviation), 10 h, D14 multiple doses of lenvatinib and 1 dose of midazolam",3.47 ng/mL
same,concentration at 24 h,"[1]; human, plasma, oral, Plasma concentration, mean (standard deviation), 24 h, D1 1 dose of lenvatinib and midazolam",0.628 ng/mL
same,concentration at 24 h,"[1]; human, plasma, oral, Plasma concentration, mean (standard deviation), 24 h, D14 multiple doses of lenvatinib and 1 dose of midazolam",1.25 ng/mL
same,Vd/F,"[1]; human, plasma, oral, Day 1, with single dose of lenvatinib, mean (SD)",481 L
same,Vd/F,"[1]; human, plasma, oral, Day 14, with lenvatinib at steady state, mean (SD)",544 L
same,half-life,"[1]; human, plasma, oral, t1/2, Day 1, with single dose of lenvatinib, mean (SD)",389 min
same,half-life,"[1]; human, plasma, oral, t1/2, Day 14, with lenvatinib at steady state, mean (SD)",406 min
same,tmax,"[1]; human, plasma, oral, tmax, Day 1, with single dose of lenvatinib",37.8 min

# — publication PMC7211203 (European Journal of Drug Metabolism and Pharmacokinetics, 2020)
